In ChEMBL document CHEMBL1123899, “Nucleic acid related compounds. 51. Synthesis and biological properties of sugar-modified analogues of the nucleoside antibiotics tubercidin, toyocamycin, sangivamycin, and formycin” (1987):
In brackets after ≈: the same amount, converted by molar mass.

Each molecule was assayed on Vaccinia virus (assay: Minimum inhibitory concentration required to reduce vaccinia virus(VV) induced cytopathogenicity by 50%). Conditions: Orthopoxvirus vaccinia.
Format: functional

`N#Cc1cn(C2OC(CO)CC2O)c2ncnc(N)c12` (configuration not stated) and `N#Cc1cn([C@H]2C[C@H](O)[C@@H](CO)O2)c2ncnc(N)c12` are the same in MIC50: 0.1 µg/mL (≈ 0.363 µM) for the first, 0.1 µg/mL (≈ 0.363 µM) for the second.

First: Nc1ncnc2c1ccn2C1OC(CO)CC1O (configuration not stated)
Second: Nc1ncnc2c1ccn2[C@H]1C[C@H](O)[C@@H](CO)O1 [2'-Deoxytubercidin]
The MIC50 of the first is 6.7-fold lower: 1.5 µg/mL (≈ 5.99 µM) for the first, 10 µg/mL (≈ 40 µM) for the second.

`Nc1ncnc2c(C3OC(CO)CC3O)n[nH]c12` (configuration not stated) and `Nc1ncnc2c([C@H]3C[C@H](O)[C@@H](CO)O3)n[nH]c12` cannot be ordered by MIC50: > 400 µg/mL for the first, > 400 µg/mL for the second.

Going from `NC(=O)c1cn([C@@H]2O[C@H](CO)[C@@H](O)[C@@H]2O)c2ncnc(N)c12` to `NC(=O)c1cn([C@@H]2O[C@H](CO)[C@@H](O)[C@H]2O)c2ncnc(N)c12` [SANGIVAMYCIN], the MIC50 falls from 0.2 µg/mL (≈ 0.647 µM) to 0.02 µg/mL (≈ 0.0647 µM) (10-fold).

Going from `Nc1ncnc2c1ccn2[C@@H]1O[C@H](CO)[C@H](O)[C@H]1O` to `Nc1ncnc2c1ccn2[C@@H]1O[C@H](CO)[C@@H](O)[C@@H]1O`, the MIC50 rises from 0.03 µg/mL (≈ 0.113 µM) to 40 µg/mL (≈ 150 µM) (1300-fold).

First: NC(=O)c1cn([C@H]2C[C@H](O)[C@@H](CO)O2)c2ncnc(N)c12
Second: NC(=O)c1cn(C2OC(CO)CC2O)c2ncnc(N)c12 (configuration not stated)
The MIC50 of the first is 5-fold lower: 0.4 µg/mL (≈ 1.36 µM) for the first, 2 µg/mL (≈ 6.82 µM) for the second.

`N#Cc1cn([C@@H]2O[C@H](CO)[C@@H](O)[C@@H]2O)c2ncnc(N)c12` and `N#Cc1cn([C@@H]2O[C@H](CO)[C@@H](O)[C@H]2O)c2ncnc(N)c12` [TOYOCAMYCIN] cannot be ordered by MIC50: 1 µg/mL (≈ 3.43 µM) for the first, > 0.04 µg/mL for the second.

First: Nc1ncnc2c([C@@H]3O[C@H](CO)[C@@H](O)[C@H]3O)[nH]nc12 [FORMYCIN]
Second: Nc1ncnc2c1ccn2[C@@H]1O[C@H](CO)[C@@H](O)[C@H]1O [TUBERCIDIN]
The MIC50 of the first is 1000-fold higher: 7 µg/mL (≈ 26.2 µM) for the first, 0.007 µg/mL (≈ 0.0263 µM) for the second.

Molecule `NC(=O)c1ncn([C@@H]2O[C@H](CO)[C@@H](O)[C@H]2O)n1` [RIBAVIRIN] has an MIC50 of 20 µg/mL (≈ 81.9 µM).
